Laboratory results published in patent publication US11590116B2 (THERAVANCE BIOPHARMA R&D IP, LLC, priority 2019, dated 2023).

Assays:
[1] = biological target: T1, recombinant human ALK5 (TGF-βR1) protein (Homo sapiens, UniProt P36897); experiment: Biochemical ALK5 (TGF-βR1) assay to measure pKi (LANCE Ultra ULight kinase assay); conditions: apparent pKi from pIC50 by Cheng-Prusoff, read-out: ALK5 pKi (converted)
T1 construct: purchased Life Technologies PR9075A
T1 sequence (P36897 34-503): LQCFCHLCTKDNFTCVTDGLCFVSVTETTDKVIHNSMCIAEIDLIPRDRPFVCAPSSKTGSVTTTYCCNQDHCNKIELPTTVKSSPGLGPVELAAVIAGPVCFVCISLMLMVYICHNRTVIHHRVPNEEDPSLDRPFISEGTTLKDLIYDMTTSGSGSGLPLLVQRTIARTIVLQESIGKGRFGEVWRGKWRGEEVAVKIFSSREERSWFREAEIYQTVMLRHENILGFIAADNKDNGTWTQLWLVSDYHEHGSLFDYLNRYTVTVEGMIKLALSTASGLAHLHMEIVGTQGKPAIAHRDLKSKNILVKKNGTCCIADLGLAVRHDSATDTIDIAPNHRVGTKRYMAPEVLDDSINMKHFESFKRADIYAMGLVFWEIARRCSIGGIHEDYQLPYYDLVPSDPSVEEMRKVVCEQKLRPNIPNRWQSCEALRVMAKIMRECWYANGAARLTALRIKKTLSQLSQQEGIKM
Procedure, shortened: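 Dose range 10 μM–25 pM; enzyme + compound 60 min RT; ATP added (5× stock 125 μM, 2 mM DTT); 60 min 37 °C; stop with EDTA + Eu anti-phospho-Topo IIα Thr1342 Ab; TR-FRET ex 320/340, em 665 nm. 4-param pIC50 → pKi (Cheng-Prusoff).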

[2] = system: TGF-β-stimulated SMAD3 phosphorylation in BEAS-2B cells; experiment: Cellular ALK5 potency assay, inhibition of TGF-β stimulated pSMAD3 formation in BEAS-2B cells; assay type: cell-based; conditions: Homo sapiens; inhibition of TGF-β stimulated pSMAD3 formation, BEAS-2B cells; read-out: BEAS2B pIC50 (converted)
Procedure, shortened: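 Cells seeded overnight; rinse with supplemented HBSS; compound 1 h at 37 °C; TGF-β 10 ng/mL final, 30 min; lyse; AlphaLISA acceptor and detector beads 2 h apart, read next day. Potency expressed as pIC50.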

SMILES	Ki [1] [nM]	IC50 [2] [nM]
Cc1cccc(-c2[nH]cnc2-c2ccc3ncc(N4CCC5(CCNCC5)C4)cc3c2)n1 [Compound 160, 2-[6-[5-(6-methyl-2-pyridyl)-1H-imidazol-4-yl]-3-quinolyl]-2,8-diazaspiro[4.5]decane]	< 0.0316	25.1 to 158
Cc1cccc(-c2[nH]cnc2-c2ccc3nccc(C(=O)O[C@H]4CC[C@@](C)(N)CC4)c3c2)n1 [Compound 1161, (4-amino-4-methyl-cyclohexyl) 6-[5-(6-methyl-2-pyridyl)-1H-imidazol-4-yl]quinoline-4-carboxylate]	3.98 to 31.6	200 to 1260
Cc1cccc(-c2[nH]cnc2-c2ccc3ncc(-c4cncc(CN5CCNCC5)c4)cc3c2)n1 [Compound 1117, 6-[5-(6-methyl-2-pyridyl)-1H-imidazol-4-yl]-3-[5-(piperazin-1-ylmethyl)-3-pyridyl]quinoline]	0.0398 to 0.316	25.1 to 158
Cc1cccc(-c2nc[nH]c2-c2ccc3ncc(-c4cnn([C@@H]5CCCC[C@H]5N)c4)cc3c2)n1 [Compound 448, (1R,2R)-2-[4-[6-[4-(6-methyl-2-pyridyl)-1H-imidazol-5-yl]-3-quinolyl]pyrazol-1-yl]cyclohexanamine]	< 0.0316	25.1 to 158
Cc1cccc(-c2[nH]cnc2-c2ccc3ncc(-c4cn[nH]c4)cc3n2)n1 [Compound 644, 2-(5-(6-methylpyridin-2-yl)-1H-imidazol-4-yl)-7-(1H-pyrazol-4-yl)-1,5-naphthyridine]	< 0.0316	< 20
Cc1cccc(-c2[nH]cnc2-c2ccc3ncc(C4=CCCC(N)C4)cc3c2)n1 (stereo not drawn) [Compound 531, 3-[6-[5-(6-methyl-2-pyridyl)-1H-imidazol-4-yl]-3-quinolyl]cyclohex-3-en-1-amine]	< 0.0316	< 20
Cc1cccc(-c2n[nH]cc2-c2ccc3ncc(N4CC(N5CCOCC5)C4)cc3n2)n1 [Compound 156, 4-[1-[6-[3-(6-methyl-2-pyridyl)-1H-pyrazol-4-yl]-1,5-naphthyridin-3-yl]azetidin-3-yl]morpholine]	< 0.0316	< 20
Cc1cccc(-c2n[nH]cc2-c2ccc3ncc(N(C)C)cc3n2)n1 [Compound 59, N,N-dimethyl-6-[3-(6-methyl-2-pyridyl)-1H-pyrazol-4-yl]-1,5-naphthyridin-3-amine]	0.0398 to 0.316	< 20
Cc1cccc(-c2n[nH]cc2-c2ccc3ncc(N4C[C@@H](C)N(C)C[C@H]4C)cc3n2)n1 (racemic) [Compound 296, 2-[3-(6-methyl-2-pyridyl)-1H-pyrazol-4-yl]-7-[rac-(2R,5R)-2,4,5-trimethylpiperazin-1-yl]-1,5-naphthyridine]	0.0398 to 0.316	25.1 to 158
Cc1cccc(-c2[nH]cnc2-c2ccc3ncc(-c4ncc(C(=O)OCCN5CCNCC5)s4)cc3c2)n1 [Compound 1187, 2-piperazin-1-ylethyl 2-[6-[5-(6-methyl-2-pyridyl)-1H-imidazol-4-yl]-3-quinolyl]thiazole-5-carboxylate]	0.0398 to 0.316	25.1 to 158
Cc1cccc(-c2n[nH]cc2-c2ccc3ncc(-c4cnc5n4CCNC5)cc3c2)n1 [Compound 538, 6-[3-(6-methyl-2-pyridyl)-1H-pyrazol-4-yl]-3-(5,6,7,8-tetrahydroimidazo[1,2-a]pyrazin-3-yl)quinoline]	0.398 to 3.16	25.1 to 158
Cc1cccc(-c2n[nH]cc2-c2ccc3ncc(NCC4CNC4)cc3n2)n1 [Compound 431, N-(azetidin-3-ylmethyl)-6-[3-(6-methyl-2-pyridyl)-1H-pyrazol-4-yl]-1,5-naphthyridin-3-amine]	0.0398 to 0.316	1580 to 10000
CCc1cccc(-c2n[nH]cc2-c2ccc3ncc(N4CCC(N5CCCC5)CC4)cc3n2)n1 [Compound 532, 2-(3-(6-ethylpyridin-2-yl)-1H-pyrazol-4-yl)-7-(4-(pyrrolidin-1-yl)piperidin-1-yl)-1,5-naphthyridine]	< 0.0316	25.1 to 158
Cc1cccc(-c2n[nH]cc2-c2ccc3ncc(NCCN4CCN(C)CC4)cc3n2)n1 [Compound 619, N-[2-(4-methylpiperazin-1-yl)ethyl]-6-[3-(6-methyl-2-pyridyl)-1H-pyrazol-4-yl]-1,5-naphthyridin-3-amine]	0.0398 to 0.316	25.1 to 158
Cc1cccc(-c2[nH]cnc2-c2ccc3ncc(N4CCNC(CC(=O)OCC(C)C)C4)cc3c2)n1 (stereo not drawn) [Compound 690, isobutyl 2-[4-[6-[5-(6-methyl-2-pyridyl)-1H-imidazol-4-yl]-3-quinolyl]piperazin-2-yl]acetate]	0.0398 to 0.316	25.1 to 158
Cc1cccc(-c2[nH]cnc2-c2ccc3ncc(-c4ncc(C5=CCNCC5)s4)cc3c2)n1 [Compound 1084, 2-[6-[5-(6-methyl-2-pyridyl)-1H-imidazol-4-yl]-3-quinolyl]-5-(1,2,3,6-tetrahydropyridin-4-yl)thiazole]	0.0398 to 0.316	< 20
Cc1cccc(-c2[nH]cnc2-c2ccc3ncc(-c4ccc(C(=O)O[C@H]5CCN(C)C5)nc4)cc3c2)n1 [Compound 722, [(3S)-1-methylpyrrolidin-3-yl] 5-[6-[5-(6-methyl-2-pyridyl)-1H-imidazol-4-yl]-3-quinolyl]pyridine-2-carboxylate]	0.0398 to 0.316	< 20
CNC1CN(c2cnc3ccc(-c4nc[nH]c4-c4cccc(C)n4)cc3c2)C1 [Compound 614, N-methyl-1-[6-[5-(6-methyl-2-pyridyl)-1H-imidazol-4-yl]-3-quinolyl]azetidin-3-amine]	0.0398 to 0.316	25.1 to 158
Cc1cccc(-c2[nH]cnc2-c2ccc3ncc(-c4cc(C(=O)O)cs4)cc3c2)n1 [Compound 1082, 5-[6-[5-(6-methyl-2-pyridyl)-1H-imidazol-4-yl]-3-quinolyl]thiophene-3-carboxylic acid]	< 0.0316	200 to 1260
Cc1cccc(-c2n[nH]cc2-c2ccc3ncc(CCCN4CCN(C(C)C)CC4)cc3n2)n1 [Compound 615, 7-[3-(4-isopropylpiperazin-1-yl)propyl]-2-[3-(6-methyl-2-pyridyl)-1H-pyrazol-4-yl]-1,5-naphthyridine]	0.0398 to 0.316	25.1 to 158
Cc1cccc(-c2[nH]cnc2-c2ccc3ncc(-c4cnc5c(c4)CNCC5)cc3c2)n1 [Compound 77, 3-[6-[5-(6-methyl-2-pyridyl)-1H-imidazol-4-yl]-3-quinolyl]-5,6,7,8-tetrahydro-1,6-naphthyridine]	0.0398 to 0.316	25.1 to 158
Cc1cccc(-c2[nH]cnc2-c2ccc3ncc(-c4ccc(C(=O)O[C@@H]5CCN(C)C5)s4)cc3c2)n1 [Compound 1009, (R)-1-methylpyrrolidin-3-yl 5-(6-(5-(6-methylpyridin-2-yl)-1H-imidazol-4-yl)quinolin-3-yl)thiophene-2-carboxylate]	0.0398 to 0.316	25.1 to 158
Cc1cccc(-c2[nH]cnc2-c2ccc3ncc(-c4cc(C(=O)OCCN5CCNCC5)ccn4)cc3c2)n1 [Compound 1123, 2-piperazin-1-ylethyl 2-[6-[5-(6-methyl-2-pyridyl)-1H-imidazol-4-yl]-3-quinolyl]pyridine-4-carboxylate]	0.0398 to 0.316	25.1 to 158
Cc1cccc(-c2[nH]cnc2-c2ccc3ncc(NCCC4CCCNC4)cc3c2)n1 (stereo not drawn) [Compound 222, 6-[5-(6-methyl-2-pyridyl)-1H-imidazol-4-yl]-N-[2-(3-piperidyl)ethyl]quinolin-3-amine]	0.0398 to 0.316	25.1 to 158
